Source: ChEMBL document CHEMBL5126551, “Spiral molecules with antimalarial activities: A review” (Eur J Med Chem, 2022)
In brackets after ≈: the same amount, converted by molar mass.

Assays:
Plasmodium falciparum [1] = assay: Antimalarial activity against chloroquine resistant Plasmodium falciparum K1 assessed as inhibition of parasite growth by [3H]-hypoxanthine incorporation assay; format: functional, organism-based
Plasmodium falciparum [2] = assay: Antimalarial activity against chloroquine sensitive Plasmodium falciparum NF54 assessed as inhibition of parasite growth by [3H]-hypoxanthine incorporation assay; format: functional, organism-based
Plasmodium falciparum [3] = assay: (§1) Antimalarial activity against chloroquine sensitive Plasmodium falciparum 3D7 infected in human erythrocyte assessed as inhibition of parasite growth preincubated with compound for 24 hrs followed by hypoxanthine addition and measured after 24 hrs by [3H]-hypoxanthine incorporation based liquid scintillation counter; format: functional, organism-based; conditions: 3D7, Erythrocyte
Plasmodium falciparum [4] = assay: as §1, with “resistant” for “sensitive”, “K1” for “3D7”; format: functional, organism-based
Plasmodium berghei [5] = assay: Antimalarial activity against Plasmodium berghei GFP ANKA infected in NMRI mouse assessed as reduction in blood parasitemia level measured on day 4 by FACS analysis; format: functional, organism-based
Plasmodium falciparum [6] = assay: Antimalarial activity against chloroquine-sensitive Plasmodium falciparum 3D7 infected in human erythrocyte assessed as inhibition of parasite growth incubated for 66 hrs by [3H]-hypoxanthine incorporation assay based liquid scintillation spectrometric method; format: functional, organism-based; conditions: 3D7, Erythrocyte
Plasmodium falciparum [7] = assay: Antimalarial activity against Plasmodium falciparum Dd2 assessed as inhibition of parasite growth; format: functional, organism-based
Plasmodium falciparum [8] = assay: Antimalarial activity against Plasmodium falciparum 3D7 assessed as inhibition of parasite growth; format: functional, organism-based
Plasmodium falciparum [9] = assay: Antimalarial activity against Plasmodium falciparum 3D7 infected in human erythrocytes assessed as reduction in parasite growth measured after 72 hrs by microscopic analysis; format: functional, organism-based; conditions: 3D7, Erythrocyte
Plasmodium falciparum [10] = assay: Antimalarial activity against Plasmodium falciparum Dd2 infected in human erythrocytes assessed as reduction in parasite growth measured after 72 hrs by microscopic analysis; format: functional, organism-based; conditions: Dd2, Erythrocyte
Plasmodium falciparum [11] = assay: Antimalarial activity against chloroquine resistant Plasmodium falciparum FcR3 assessed as inhibition of parasite growth measured after 48 hrs by classical radioactive microdilution method; format: functional, organism-based; conditions: FcR3, 48 h
Plasmodium falciparum [12] = assay: Antimalarial activity against highly chloroquine resistant Plasmodium falciparum FcM29 assessed as inhibition of parasite growth measured after 48 hrs by classical radioactive microdilution method; format: functional, organism-based; conditions: FcM29, 48 h
Plasmodium falciparum [13] = assay: Antimalarial activity against chloroquine resistant Plasmodium falciparum FcB1 infected in human red blood cells assessed as inhibition of liberation and reinvasion steps of the erythrocytes by parasites measured after 72 hrs by titrated hypoxanthine incorporation assay; format: functional, organism-based, Red blood cell; conditions: FcB1, Erythrocyte
Plasmodium falciparum [14] = assay: Antimalarial activity against chloroquine sensitive Plasmodium falciparum infected in human red blood cells assessed as inhibition of liberation and reinvasion steps of the erythrocytes by parasites measured after 72 hrs by titrated hypoxanthine incorporation assay; format: functional, organism-based, Red blood cell; conditions: Erythrocyte
Plasmodium falciparum [15] = assay: Antimalarial activity against chloroquine-sensitive Plasmodium falciparum D6 assessed as inhibition of parasite growth; format: functional, organism-based
Plasmodium falciparum [16] = assay: Antimalarial activity against chloroquine-resistant Plasmodium falciparum W2 assessed as inhibition of parasite growth; format: functional, organism-based
Plasmodium falciparum [17] = assay: Antimalarial activity against chloroquine-sensitive Plasmodium falciparum D6 assessed as inhibition of parasite growth by parasite lactate dehydrogenase assay; format: functional, organism-based
Plasmodium falciparum [18] = assay: Antimalarial activity against chloroquine-resistant Plasmodium falciparum W2 assessed as inhibition of parasite growth by parasite lactate dehydrogenase assay; format: functional, organism-based
Plasmodium berghei [19] = assay: Antiplasmodial activity against luciferase expressing hepatic stage Plasmodium berghei sporozoites infected in human Huh-7 cells assessed as inhibition of parasite infection preincubated with cells for 1 hrs followed by parasite infection and measured after 48 hrs by bioluminescence assay; format: functional, organism-based
Plasmodium falciparum [20] = assay: Antimalarial activity against Plasmodium falciparum K1 assessed as inhibition of parasite growth; format: functional, organism-based
Plasmodium falciparum [21] = assay: Antimalarial activity against chloroquine and quinine sensitive Plasmodium falciparum assessed as inhibition of parasite growth; format: functional, organism-based
[22] = Metabolic stability in Sprague-Dawley rat assessed as AUC(0 to t) of 97-63 metabolite by LC-MS/MS analysis; format: ADME
[23] = Metabolic stability in Sprague-Dawley rat assessed as AUC(0 to infinity) of 97-63 metabolite by LC-MS/MS analysis; format: ADME; set-up: time infinity
[24] = Metabolic stability in Sprague-Dawley rat assessed as Cmax of 97-63 metabolite by LC-MS/MS analysis; format: ADME
[25] = Metabolic stability in Sprague-Dawley rat assessed as Tmax of 97-63 metabolite by LC-MS/MS analysis; format: ADME
[26] = Metabolic stability in Sprague-Dawley rat assessed as half-life of 97-63 metabolite by LC-MS/MS analysis; format: ADME
[27] = Apparent oral volume of distribution in Sprague-Dawley rat by LC-MS/MS analysis; format: ADME; conditions: in vivo
Plasmodium falciparum [28] = assay: Antimalarial activity against chloroquine-resistant Plasmodium falciparum K14 infected in human red blood cells assessed as inhibition of parasite growth incubated for 42 hrs by [3H]-hypoxanthine incorporation assay; format: functional, organism-based, Red blood cell; conditions: K14, Erythrocyte
Plasmodium falciparum [29] = assay: Antimalarial activity against chloroquine-sensitive Plasmodium falciparum 3D7 infected in human erythrocytes assessed as inhibition of parasite growth incubated for 48 hrs by parasite lactate dehydrogenase based colorimetric assay; format: functional, organism-based; conditions: 3D7, 48 h
Plasmodium falciparum [30] = assay: Antimalarial activity against chloroquine-resistant Plasmodium falciparum FCR3 infected in human erythrocytes assessed as inhibition of parasite growth incubated for 48 hrs by [3H]-hypoxanthine incorporation assay; format: functional, organism-based

SMILES: c1cc(C2CCC3(CC2)OOC2(O3)C3CC4CC(C3)CC2C4)ccc1OCCN1CCOCC1 (stereo not given)
- IC50 (Plasmodium falciparum [1]): 2.8 ng/mL (≈ 5.96 nM)
- IC50 (Plasmodium falciparum [2]): 2.8 ng/mL (≈ 5.96 nM)

SMILES: CN1CCN(C2CCN(C(=O)CC3CCC4(CC3)OOC3(OO4)C4CC5CC(C4)CC3C5)CC2)CC1 (stereo not given)
- IC50 (Plasmodium falciparum [3]): 0.8 nM
- IC50 (Plasmodium falciparum [4]): 1.1 nM
- EC50 (Plasmodium berghei [5]): 1.33 mg/kg
- EC90 (Plasmodium berghei [5]): 4.18 mg/kg

SMILES: CCCCCCCCCCCCCCC[C@@H](O)CC1(OC)CCC2(C=CC(=O)C=C2)O1 (stereo not given in full)
- IC50 (Plasmodium falciparum [6]): 480 nM

SMILES: C1CCCCCC2(CCCCC1)OOCCCOO2
- EC50 (Plasmodium falciparum [7]): 897 nM
- EC50 (Plasmodium falciparum [8]): 268 nM

SMILES: OCCCCCCC1COOC2(CCCCCCCCCCC2)OOC1
- EC50 (Plasmodium falciparum [9]): 332 nM
- EC50 (Plasmodium falciparum [10]): 897 nM

SMILES: CC1(C)COC2(CCC(NC3CCC(Nc4ccnc5cc(Cl)ccc45)CC3)CC2)OO1 (stereo not given)
- IC50 (Plasmodium falciparum [11]): 12 nM
- IC50 (Plasmodium falciparum [12]): 10 nM

SMILES: Clc1ccc2c(NCCNC3CCC4(CC3)OOC3(c5ccccc5)CC(c5ccccc5)=CC3O4)ccnc2c1 (stereo not given)
- IC50 (Plasmodium falciparum [13]): 21 nM
- IC50 (Plasmodium falciparum [14]): 8 nM

SMILES: CC(=O)O[C@H]1C[C@H]2[C@@H]([C@H](OC(C)=O)C[C@@H]3CC4(CC[C@@]32C)OOC2(CCC(C)CC2)OO4)[C@@H]2CC[C@H]([C@H](C)CCC(N)=O)[C@@]12C (stereo not given in full)
- IC50 (Plasmodium falciparum [15]): 1.17 nM
- IC50 (Plasmodium falciparum [16]): 0.58 nM

SMILES: Cc1ccc(S(=O)(=O)N2CCC3(CC2)OOC(C2CCC(C)CC2)OO3)cc1 (stereo not given)
- IC50 (Plasmodium falciparum [17]): 700 nM
- IC50 (Plasmodium falciparum [18]): 830 nM

SMILES: Cc1ccc(C2OOC3(CCN(S(=O)(=O)c4ccccc4)CC3)OO2)cc1
- IC50 (Plasmodium falciparum [17]): 300 nM
- IC50 (Plasmodium falciparum [18]): > 200 nM

SMILES: CC(C)(C)C(=O)C1C(c2ccccc2)(c2ccccc2)N=NC12C(=O)N1[C@@H](C(=O)OC(c3ccccc3)c3ccccc3)C(C)(C)S[C@@H]12 (stereo not given in full)
- IC50 (Plasmodium berghei [19]): 3320 nM

SMILES: COC(=O)C12C=C(OC)[C@]3(Cl)C(C)(C=C(C4=C[C@H](O)[C@@H]5O[C@]5(CC=C(C)C)[C@@H]4O)[C@]3(O)C13OC(=O)c1c(O)cc(C)cc1O3)C2 (stereo not given in full)
- IC50 (Plasmodium falciparum [20]): 2710 nM

SMILES: CC(C)(N)CNC(=O)C(=O)OC1CCCC2(C1)OOC1(O2)C2CC3CC(C2)CC1C3 (stereo not given)
- IC50 (Plasmodium falciparum [1]): 1 ng/mL (≈ 2.37 nM)
- IC50 (Plasmodium falciparum [2]): 0.91 ng/mL (≈ 2.15 nM)

SMILES: COC(=O)C1=CO[C@@H](C)[C@@H]2CN3CC[C@@]4(C(=O)Nc5ccccc54)[C@H]3C[C@H]12
- IC50 (Plasmodium falciparum [16]): 17000 ng/mL

SMILES: CCOC(=O)C1=C2N=C(c3ccncc3)NN2C2=C(C(=O)CCC2)C12C(=O)Nc1ccccc12 (stereo not given)
- IC50 (Plasmodium falciparum [21]): 295 nM

SMILES: O=C(O)CC1CCC2(CC1)OOC1(O2)C2CC3CC(C2)CC1C3 (stereo not given)
- IC50 (Plasmodium falciparum [1]): 34 ng/mL (≈ 105 nM)
- IC50 (Plasmodium falciparum [2]): 45 ng/mL (≈ 140 nM)

SMILES: C=C(c1ccc(OC(C)(C)COC(=O)CCC(=O)O)cc1)C1OCC2(OO1)C1CC3CC(C1)CC2C3 (stereo not given)
- AUCt [22]: 9100 ng·h/mL
- AUC [23]: 9150 ng·h/mL
- Cmax [24]: 1350 ng/mL
- Tmax [25]: 2.2 h
- t1/2 [26]: 9.27 h
- Vd/F [27]: 7.81 L/kg

SMILES: COC(=O)C12C=C(OC)[C@@]3(Cl)C(C)(C=C(C4=C[C@H](O)[C@@H]5O[C@]5(CC=C(C)C)[C@@H]4O)[C@@]3(O)C13OC(=O)c1c(O)cc(C)cc1O3)C2 (stereo not given in full)
- IC50 (Plasmodium falciparum [20]): 5730 nM

SMILES: CCOc1ccc(N2C(=O)C3(c4ccccc4Cc4ccccc43)C23c2ccccc2-c2ccccc23)cc1
- IC50 (Plasmodium falciparum [28]): 5000 nM

SMILES: COc1cc([C@@H]2c3cc(Cl)ccc3NC3(C(=O)Nc4ccccc43)[C@H]2C)ccc1O (stereo not given in full)
- IC50 (Plasmodium falciparum [29]): 1800 nM
- IC50 (Plasmodium falciparum [30]): 1670 nM

SMILES: CC(C)OC(=O)C1=C2N=C(c3ccncc3)NN2C2=C(C(=O)CCC2)C12C(=O)Nc1ccccc12 (stereo not given)
- IC50 (Plasmodium falciparum [21]): 246 nM
